Patent US9688695B2, “Imidazothiadiazole and imidazopyrazine derivatives as protease activated receptor 4 (PAR4) inhibitors for treating platelet aggregation” (BRISTOL-MYERS SQUIBB COMPANY, priority 2012, dated 2017)
Structures can show the parent of a compound that is named as a salt.

Target: PAR4 (Homo sapiens (Human), UniProt Q96RI0)
Test: FLIPR assay in PAR4-expressing HEK293 cells (PAR4 antagonist activity, calcium mobilization)
Assay type: cell-based
Details: H-Ala-Phe(4-F)-Pro-Gly-Trp-Leu-Val-Lys-Asn-Gly-NH2-induced calcium mobilization
Method in brief: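 HEK293 EBNA cells stably expressing human PAR4 (also endogenous PAR1) preincubated 30 min at room temperature with compound in HBSS/10 mM HEPES, 0.67% DMSO final. PAR4 agonist peptide then added and intracellular calcium mobilization monitored by fluorescence.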

Chain of PAR4 (Q96RI0 18-385): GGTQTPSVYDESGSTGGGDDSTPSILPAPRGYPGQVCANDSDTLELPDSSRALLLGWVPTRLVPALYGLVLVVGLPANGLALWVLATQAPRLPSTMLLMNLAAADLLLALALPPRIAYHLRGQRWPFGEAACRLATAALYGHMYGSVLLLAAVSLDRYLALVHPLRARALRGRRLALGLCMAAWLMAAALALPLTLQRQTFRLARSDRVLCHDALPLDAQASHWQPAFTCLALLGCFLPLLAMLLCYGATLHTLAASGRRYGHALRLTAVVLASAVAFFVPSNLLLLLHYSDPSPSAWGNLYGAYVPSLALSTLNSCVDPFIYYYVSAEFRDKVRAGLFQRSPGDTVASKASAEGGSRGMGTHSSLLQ

Structure (SMILES) | EC50
COc1cc(OCc2csc(-c3ccc(C(=O)NC(C)C)cc3)n2)c2cc(-c3cn4nc(OC)sc4n3)oc2c1 [Example 304] | 880 pM
COc1cc(OCc2csc(N(C)C(C)C)n2)c2cc(-c3cn4nc(C)ccc4n3)oc2c1 [Example 280] | 6200 pM
COc1nn2cc(-c3cc4c(OCc5csc(-c6ccc(C(=O)N(C)CC#N)cc6)n5)cc(F)cc4o3)nc2s1 [Example 184, N-(Cyanomethyl)-4-(4-(((6-fluoro-2-(2-methoxyimidazo[2,1-b][1,3,4]thiadiazol-6-yl)benzofuran-4-yl)oxy)methyl)thiazol-2-yl)-N-methylbenzamide] | 380 pM
COc1cc(OCc2csc(C3(c4cccnc4)CCC3)n2)c2cc(-c3cn4nc(OC)sc4n3)oc2c1 [Example 177, 2-Methoxy-6-(6-methoxy-4-((2-(1-(pyridin-3-yl)cyclobutyl)thiazol-4-yl)methoxy)benzofuran-2-yl)imidazo[2,1-b][1,3,4]thiadiazole] | 610 pM
COc1cc(OCc2csc(C(C)(O)C3CCCCC3)n2)c2cc(-c3cn4nc(OC)sc4n3)oc2c1 (stereo not shown) [Example 142] | 310 pM
COc1cc(OCc2csc(C3CCC(F)(F)CC3)n2)c2cc(-c3cn4nc(C)ccc4n3)oc2c1 [Example 239] | 580 pM
COc1cc(OCc2csc(NCc3cccc(N(C)C)c3)n2)c2cc(-c3cn4nc(C)ccc4n3)oc2c1 [Example 269] | 2500 pM
COc1cc(OCc2csc(Nc3cccc(N(C)C)c3)n2)c2cc(-c3cn4nc(C)ccc4n3)oc2c1 [Example 248] | 3100 pM
CCNC(=O)c1ccc(-c2nc(COc3cc(OC)cc4oc(-c5cn6nc(OC)sc6n5)cc34)cs2)cc1 [Example 306] | 1200 pM
COc1cc(OCc2csc(N3CCC4(CC3)CC4)n2)c2cc(-c3cn4nc(C)ccc4n3)oc2c1 [Example 278] | 1400 pM
COc1cc(OCc2csc(-c3cccnc3)n2)c2cc(-c3cn4nc(OC)sc4n3)oc2c1 [Example 82] | 670 pM
COc1cc(OCc2csc(C3CCN(C(=O)OC(C)(C)C)CC3)n2)c2cc(-c3cn4nc(OC)sc4n3)oc2c1 [Example 109, tert-Butyl 4-(4-(((6-methoxy-2-(2-methoxyimidazo[2,1-b][1,3,4]thiadiazol-6-yl)benzofuran-4-yl)oxy)methyl)thiazol-2-yl)piperidine-1-carboxylate] | 690 pM
COc1cc(OCc2csc(C3(c4ccc(Cl)cc4)CCOCC3)n2)c2cc(-c3cn4nc(OC)sc4n3)oc2c1 [Example 154, 6-(4-((2-(4-(4-Chlorophenyl)tetrahydro-2H-pyran-4-yl)thiazol-4-yl)methoxy)-6-methoxybenzofuran-2-yl)-2-methoxyimidazo[2,1-b][1,3,4]thiadiazole] | 1100 pM
COc1cc(OCc2csc(-c3ccc4c(c3)OCO4)n2)c2cc(-c3cn4nc(OC)sc4n3)oc2c1 [Example 57] | 670 pM
COc1cc(OCc2csc(C3(O)CCN(C(=O)c4ccccc4)CC3)n2)c2cc(-c3cn4nc(OC)sc4n3)oc2c1 [Example 130, (4-Hydroxy-4-(4-(((6-methoxy-2-(2-methoxyimidazo[2,1-b][1,3,4]thiadiazol-6-yl)benzofuran-4-yl)oxy)methyl)thiazol-2-yl)piperidin-1-yl)(phenyl)methanone] | 400 pM
COc1cc(OCc2csc(CCC3CC3)n2)c2cc(-c3cn4nc(OC)sc4n3)oc2c1 [Example 60] | 380 pM
COc1cc(OCc2csc(-c3ccc(CO)cc3)n2)c2cc(-c3cn4nc(OC)sc4n3)oc2c1 [Example 69] | 230 pM
COc1cc(OCc2csc(C3(O)CCN(C(=O)OC(C)(C)C)CC3)n2)c2cc(-c3cn4nc(OC)sc4n3)oc2c1 [Example 129, tert-Butyl 4-hydroxy-4-(4-(((6-methoxy-2-(2-methoxyimidazo[2,1-b][1,3,4]thiadiazol-6-yl)benzofuran-4-yl)oxy)methyl)thiazol-2-yl)piperidine-1-carboxylate] | 960 pM
COc1cc(OCc2csc(C3(F)CCC(F)(F)CC3)n2)c2cc(-c3cn4nc(OC)sc4n3)oc2c1 [Example 136, 2-Methoxy-6-(6-methoxy-4-((2-(1,4,4-trifluorocyclohexyl)thiazol-4-yl)methoxy)benzofuran-2-yl)imidazo[2,1-b][1,3,4]thiadiazole] | 1200 pM
COc1cc(OCc2csc(C3(c4ccccc4F)CCOCC3)n2)c2cc(-c3cn4nc(OC)sc4n3)oc2c1 [Example 156, 6-(4-((2-(4-(2-Fluorophenyl)tetrahydro-2H-pyran-4-yl)thiazol-4-yl)methoxy)-6-methoxybenzofuran-2-yl)-2-methoxyimidazo[2,1-b][1,3,4]thiadiazole] | 520 pM

Now from value to molecule:

EC50 | Structure (SMILES)
450 pM | COc1cc(OCc2csc(C3(OC)CCOCC3)n2)c2cc(-c3cn4nc(OC)sc4n3)oc2c1 [Example 120, 2-Methoxy-6-(6-methoxy-4-((2-(4-methoxytetrahydro-2H-pyran-4-yl)thiazol-4-yl)methoxy)benzofuran-2-yl)imidazo[2,1-b][1,3,4]thiadiazole]
1000 pM | COc1cc(OCc2csc(-c3ccccc3OC)n2)c2cc(-c3cn4nc(OC)sc4n3)oc2c1 [Example 19]
410 pM | COc1ccc(C2(c3nc(COc4cc(OC)cc5oc(-c6cn7nc(OC)sc7n6)cc45)cs3)CCOCC2)cc1 [Example 159, 2-Methoxy-6-(6-methoxy-4-((2-(4-(4-methoxyphenyl)tetrahydro-2H-pyran-4-yl)thiazol-4-yl)methoxy)benzofuran-2-yl)imidazo[2,1-b][1,3,4]thiadiazole]
370 pM | COc1cc(OCc2csc(-c3ccc(C(=O)N(C)CC4CC4)cc3)n2)c2cc(-c3cn4nc(OC)sc4n3)oc2c1 [Example 314]
12000 pM | COc1cc(OCc2csc(Cl)n2)c2cc(-c3cn4nc(C)ccc4n3)oc2c1 [Example 206, 2-Chloro-4-(((6-methoxy-2-(6-methylimidazo[1,2-b]pyridazin-2-yl)benzofuran-4-yl)oxy)methyl)thiazole]
1800 pM | COc1cc(OCc2csc(-c3ccc(C)nc3)n2)c2cc(-c3cn4nc(C)ccc4n3)oc2c1 [Example 231]
1100 pM | COc1cc(OCc2csc(-c3ccc(F)cc3F)n2)c2cc(-c3cn4nc(OC)sc4n3)oc2c1 [Example 24]
730 pM | CCc1sc(N2CCOCC2)nc1COc1cc(OC)cc2oc(-c3cn4nc(C)ccc4n3)cc12 [Example 238]
940 pM | COc1cc(OCc2csc(C3(N)CCOCC3)n2)c2cc(-c3cn4nc(OC)sc4n3)oc2c1 [Example 172, 4-(4-(((6-Methoxy-2-(2-methoxyimidazo[2,1-b][1,3,4]thiadiazol-6-yl)benzofuran-4-yl)oxy)methyl)thiazol-2-yl)tetrahydro-2H-pyran-4-amine, HCl]
460 pM | COc1cc(OCc2csc(C3(O)CCOCC3)n2)c2cc(-c3cn4nc([C@H](C)F)sc4n3)oc2c1 [Example 196, (S)-4-(4-(((2-(2-(1-Fluoroethyl)imidazo[2,1-b][1,3,4]thiadiazol-6-yl)-6-methoxybenzofuran-4-yl)oxy)methyl)thiazol-2-yl)tetrahydro-2H-pyran-4-ol]
580 pM | CNC(=O)c1ccc(-c2nc(COc3cc(F)cc4oc(-c5cn6nc(OC)sc6n5)cc34)c(C)s2)cc1 [Example 186, 4-(4-(((6-Fluoro-2-(2-methoxyimidazo[2,1-b][1,3,4]thiadiazol-6-yl)benzofuran-4-yl)oxy)methyl)-5-methylthiazol-2-yl)-N-methylbenzamide]
